# Results as given in patent publication US20130317029A1 (PORTOLA PHARMACEUTICALS, INC., priority 2010, published 2013).
# System: ITAM signaling
# Assay: not given
# Conditions: in response to various stimuli, including FcεR1 and BCR induced Syk activation; cited from earlier work
row,SMILES,inhibition of ITAM signaling
1,COc1cc(Nc2ncc(F)c(Nc3ccc4c(n3)NC(=O)C(C)(C)O4)n2)cc(OC)c1OC [Example R406],inhibit ITAM signaling

# System: lymphoma cell lines and primary human lymphoma samples
# Assay: not given
# Conditions: lymphoma cell lines and primary human lymphoma samples; cited from earlier work
row,SMILES,BCR signaling
1,COc1cc(Nc2ncc(F)c(Nc3ccc4c(n3)NC(=O)C(C)(C)O4)n2)cc(OC)c1OC [Example R406],attenuates BCR signaling

# Same assay, conditions: lymphoma cell lines; cited from earlier work
row,SMILES,apoptosis
1,COc1cc(Nc2ncc(F)c(Nc3ccc4c(n3)NC(=O)C(C)(C)O4)n2)cc(OC)c1OC [Example R406],resulting in apoptosis

# Molecular target: T1, full length active recombinant SYK enzyme (Homo sapiens, UniProt P43405)
# T1 construct: full length active recombinant SYK enzyme (Millipore, Calif.); purchased Millipore
# Assay: Inhibition of Syk tyrosine phosphorylation activity (LANCE TR-FRET kinase assay)
# Format: biochemical
# Conditions: not given
# How it was run: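 Full-length active recombinant SYK (1 nM) phosphorylated biotinylated SYK-specific peptide (550 nM) with 100 μM ATP in 50 mM Tris pH 7.5, 5 mM MgCl2, 1 mM DTT, 3% DMSO, 1 h at room temperature. EDTA quench with Eu-anti-phosphotyrosine and SA-APC, 1 h TR-FRET read; IC50 by non-linear regression.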
row,SMILES,IC50 [nM]
1,"CC(C)C[C@@H](Nc1nc(Nc2ccc(OC(F)(F)F)cc2)c(C(N)=O)c(=O)[nH]1)C(N)=O [Example 91, (R)-2-(1-amino-4-methyl-1-oxopentan-2-ylamino)-4-(4-(trifluoromethoxy)phenylamino)-6-oxo-1,6-dihydropyrimidine-5-carboxamide]",1 to 10
2,"CC[C@@H](Nc1nc(Nc2ccc(OC(F)(F)F)cc2)c(C(N)=O)c(=O)[nH]1)C(N)=O [Example 92, (R)-2-(1-amino-1-oxobutan-2-ylamino)-4-(4-(trifluoromethoxy)phenylamino)-6-oxo-1,6-dihydropyrimidine-5-carboxamide]",1 to 10
3,"NC(=O)c1c(Nc2cccc(-c3ccccn3)c2)nc(N[C@H](CC2CC2)C(N)=O)[nH]c1=O [Example 95, (R)-2-(1-amino-3-cyclopropyl-1-oxopropan-2-ylamino)-6-oxo-4-(3-(pyridin-2-yl)phenylamino)-1,6-dihydropyrimidine-5-carboxamide]",1 to 10
4,"CC(C)[C@@H](Nc1nc(Nc2cccc(-c3ccccn3)c2)c(C(N)=O)c(=O)[nH]1)C(N)=O [Example 96, (R)-2-(1-amino-3-methyl-1-oxobuan-2-ylamino)-6-oxo-4-(3-(pyridin-2-yl)phenylamino)-1,6-dihydropyrimidine-5-carboxamide]",1 to 10
5,"CC(C)C[C@@H](Nc1nc(Nc2cccc(-c3cccnc3)c2)c(C(N)=O)c(=O)[nH]1)C(N)=O [Example 97, (R)-2-(1-amino-4-methyl-1-oxopentan-2-ylamino)-6-oxo-4-(3-(pyridin-3-yl)phenylamino)-1,6-dihydropyrimidine-5-carboxamide]",1 to 10
6,"CC[C@@H](Nc1nc(Nc2cccc(OC(F)(F)F)c2)c(C(N)=O)c(=O)[nH]1)C(N)=O [Example 102, (R)-2-(1-amino-1-oxobutan-2-ylamino)-4-(3-(trifluoromethoxy)phenylamino)-6-oxo-1,6-dihydropyrimidine-5-carboxamide]",1 to 10
7,"CNC(=O)[C@@H](CC(C)C)Nc1nc(Nc2ccc3ncsc3c2)c(C(N)=O)c(=O)[nH]1 [Example 103, (R)-4-(benzo[d]thiazol-6-ylamino)-2-(4-methyl-1-(methylamino)-1-oxopentan-2-ylamino)-6-oxo-1,6-dihydropyrimidine-5-carboxamide]",10 to 100
8,"CNC(=O)[C@@H](CC(C)C)Nc1nc(Nc2cccc(-n3cccn3)c2)c(C(N)=O)c(=O)[nH]1 [Example 104, (R)-4-(3-(1H-pyrazol-1-yl)phenylamino)-2-(4-methyl-1-(methylamino)-1-oxopentan-2-ylamino)-6-oxo-1,6-dihydropyrimidine-5-carboxamide]",> 1000
9,"CNC(=O)[C@@H](CC(C)C)Nc1nc(Nc2ccc3[nH]ncc3c2)c(C(N)=O)c(=O)[nH]1 [Example 105, (R)-4-(1H-indazol-5-ylamino)-2-(4-methyl-1-(methylamino)-1-oxopentan-2-ylamino)-6-oxo-1,6-dihydropyrimidine-5-carboxamide]",100 to 1000
10,"CC(C)C[C@@H](Nc1nc(Nc2cnc3ccccc3c2)c(C(N)=O)c(=O)[nH]1)C(N)=O [Example 108, (R)-2-(1-amino-4-methyl-1-oxopentan-2-ylamino)-6-oxo-4-(quinolin-3-ylamino)-1,6-dihydropyrimidine-5-carboxamide]",< 1
11,COc1ccc(Nc2nc(N[C@H](CC(C)C)C(N)=O)[nH]c(=O)c2C(N)=O)cn1 [Example 110],1 to 10
12,"CC(C)C[C@@H](Nc1nc(Nc2ccc(-c3ccncc3)cc2)c(C(N)=O)c(=O)[nH]1)C(N)=O [Example 111, (R)-2-(1-amino-4-methyl-1-oxopentan-2-ylamino)-6-oxo-4-(4-(pyridin-4-yl)phenylamino)-1,6-dihydropyrimidine-5-carboxamide]",1 to 10
13,"CC(C)C[C@@H](Nc1nc(Nc2ccc(-c3ccccn3)cc2)c(C(N)=O)c(=O)[nH]1)C(N)=O [Example 113, (R)-2-(1-amino-4-methyl-1-oxopentan-2-ylamino)-6-oxo-4-(4-(pyridin-2-yl)phenylamino)-1,6-dihydropyrimidine-5-carboxamide]",1 to 10
14,"CC(C)C[C@@H](Nc1nc(Nc2cnn(C)c2)c(C(N)=O)c(=O)[nH]1)C(N)=O [Example 114, (R)-2-(1-amino-4-methyl-1-oxopentan-2-ylamino)-4-(1-methyl-1H-pyrazol-4-ylamino)-6-oxo-1,6-dihydropyrimidine-5-carboxamide]",1 to 10
15,"CC[C@@H](Nc1nc(Nc2ccc(-n3ccnc3)cc2)c(C(N)=O)c(=O)[nH]1)C(N)=O [Example 116, (R)-2-(1-amino-1-oxobutan-2-ylamino)-4-(4-(1H-imidazol-1-yl)phenylamino)-6-oxo-1,6-dihydropyrimidine-5-carboxamide]",1 to 10
16,"CC(C)C[C@@H](Nc1nc(Nc2cccc(-n3ccnc3)c2)c(C(N)=O)c(=O)[nH]1)C(N)=O [Example 118, (R)-2-(1-amino-4-methyl-1-oxopentan-2-ylamino)-4-(3-(1H-imidazol-1-yl)phenylamino)-6-oxo-1,6-dihydropyrimidine-5-carboxamide]",1 to 10

# Other lines, results leading:
row,IC50 [nM],SMILES
1,1 to 10,"COCCOc1ccc(Nc2nc(N[C@H](CC(C)C)C(N)=O)[nH]c(=O)c2C(N)=O)cc1 [Example 93, (R)-2-(1-amino-4-methyl-1-oxopentan-2-ylamino)-4-(4-(2-methoxyethoxy)phenylamino)-6-oxo-1,6-dihydropyrimidine-5-carboxamide]"
2,1 to 10,"CC[C@@H](Nc1nc(Nc2ccc(OCCOC)cc2)c(C(N)=O)c(=O)[nH]1)C(N)=O [Example 94, (R)-2-(1-amino-1-oxobutan-2-ylamino)-4-(4-(2-methoxyethoxy)phenylamino)-6-oxo-1,6-dihydropyrimidine-5-carboxamide]"
3,1 to 10,"COCCOc1cccc(Nc2nc(N[C@H](CC(C)C)C(N)=O)[nH]c(=O)c2C(N)=O)c1 [Example 98, (R)-2-(1-amino-4-methyl-1-oxopentan-2-ylamino)-4-(3-(2-methoxyethoxy)phenylamino)-6-oxo-1,6-dihydropyrimidine-5-carboxamide]"
4,1 to 10,"CC[C@@H](Nc1nc(Nc2cccc(OCCOC)c2)c(C(N)=O)c(=O)[nH]1)C(N)=O [Example 99, (R)-2-(1-amino-1-oxobutan-2-ylamino)-4-(3-(2-methoxyethoxy)phenylamino)-6-oxo-1,6-dihydropyrimidine-5-carboxamide]"
5,> 1000,"CNC(=O)[C@@H](CC(C)C)Nc1nc(Nc2cccc(-c3ccccn3)c2)c(C(N)=O)c(=O)[nH]1 [Example 100, (R)-2-(4-methyl-1-(methylamino)-1-oxopentan-2-ylamino)-6-oxo-4-(3-(pyridin-2-yl)phenylamino)-1,6-dihydropyrimidine-5-carboxamide]"
6,1 to 10,"CC(C)C[C@@H](Nc1nc(Nc2cccc(OC(F)(F)F)c2)c(C(N)=O)c(=O)[nH]1)C(N)=O [Example 101, (R)-2-(1-amino-4-methyl-1-oxopentan-2-ylamino)-4-(3-(trifluoromethoxy)phenylamino)-6-oxo-1,6-dihydropyrimidine-5-carboxamide]"
7,1 to 10,"CC(C)C[C@@H](Nc1nc(Nc2ccc(-c3cccnc3)cc2)c(C(N)=O)c(=O)[nH]1)C(N)=O [Example 106, (R)-2-(1-amino-4-methyl-1-oxopentan-2-ylamino)-6-oxo-4-(4-(pyridin-3-yl)phenylamino)-1,6-dihydropyrimidine-5-carboxamide]"
8,1 to 10,"CC(C)C[C@@H](Nc1nc(Nc2ccc3cccnc3c2)c(C(N)=O)c(=O)[nH]1)C(N)=O [Example 107, (R)-2-(1-amino-4-methyl-1-oxopentan-2-ylamino)-6-oxo-4-(quinolin-7-ylamino)-1,6-dihydropyrimidine-5-carboxamide]"
9,< 1,"CC[C@@H](Nc1nc(Nc2cnc3ccccc3c2)c(C(N)=O)c(=O)[nH]1)C(N)=O [Example 109, (R)-2-(1-amino-1-oxobutan-2-ylamino)-6-oxo-4-(quinolin-3-ylamino)-1,6-dihydropyrimidine-5-carboxamide]"
10,1 to 10,"CC(C)C[C@@H](Nc1nc(Nc2cccc(-c3ccncc3)c2)c(C(N)=O)c(=O)[nH]1)C(N)=O [Example 112, (R)-2-(1-amino-4-methyl-1-oxopentan-2-ylamino)-6-oxo-4-(3-(pyridin-4-yl)phenylamino)-1,6-dihydropyrimidine-5-carboxamide]"
11,1 to 10,"CC(C)C[C@@H](Nc1nc(Nc2ccc(-n3ccnc3)cc2)c(C(N)=O)c(=O)[nH]1)C(N)=O [Example 115, (R)-2-(1-amino-4-methyl-1-oxopentan-2-ylamino)-4-(4-(1H-imidazol-1-yl)phenylamino)-6-oxo-1,6-dihydropyrimidine-5-carboxamide]"
12,100 to 1000,"CC(C)C[C@@H](Nc1nc(Nc2ccn(C)n2)c(C(N)=O)c(=O)[nH]1)C(N)=O [Example 117, (R)-2-(1-amino-4-methyl-1-oxopentan-2-ylamino)-4-(1-methyl-1H-pyrazol-3-ylamino)-6-oxo-1,6-dihydropyrimidine-5-carboxamide]"
13,1 to 10,"CC[C@@H](Nc1nc(Nc2cccc(-n3ccnc3)c2)c(C(N)=O)c(=O)[nH]1)C(N)=O [Example 119, (R)-2-(1-amino-1-oxobutan-2-ylamino)-4-(3-(1H-imidazol-1-yl)phenylamino)-6-oxo-1,6-dihydropyrimidine-5-carboxamide]"

# System: refractory NHL and chronic lymphocytic leukemia
# Assay: not given
# Conditions: cited from earlier work
row,SMILES,phase II clinical trial outcome
1,COc1cc(Nc2ncc(F)c(Nc3ccc4c(n3)NC(=O)C(C)(C)O4)n2)cc(OC)c1OC [Example R406],favorable results

# System: JAK kinases
# Assay: not given
# Conditions: cited from earlier work
row,SMILES,activity against JAK kinases
1,COc1cc(Nc2ncc(F)c(Nc3ccc4c(n3)NC(=O)C(C)(C)O4)n2)cc(OC)c1OC [Example R406],active

# System: Src kinsase
# Assay: not given
# Conditions: cited from earlier work
row,SMILES,activity against Src kinase
1,COc1cc(Nc2ncc(F)c(Nc3ccc4c(n3)NC(=O)C(C)(C)O4)n2)cc(OC)c1OC [Example R406],not against
